Results taken from US8883809B2, “Isoxazole/isoxazoline/combretastatin linked dihydroquinazolinone hybrids as potential anticancer agents and process for the preparation thereof” (Council of Scientific & Industrial Research, priority 2008, dated 2014).
Read-outs that look alike come from different tables or passages of the source.

Key:
SF-268 = test: NCI in vitro cytotoxicity, SRB assay; conditions: Homo sapiens
MDA-MB-231/ATCC = test: NCI in vitro cytotoxicity, SRB assay; conditions: Homo sapiens
SF-539 = test: NCI in vitro cytotoxicity, SRB assay; conditions: Homo sapiens
[1] = test system: Prostate cancer cell lines; test: NCI in vitro cytotoxicity, panel average
[2] = test system: forty nine human tumour cell lines; test: NCI in vitro cytotoxicity screen, SRB assay, 48 h continuous exposure
NCI-H522 = test: NCI in vitro cytotoxicity, SRB assay; conditions: Homo sapiens
Source text: (§1) The results are expressed as percent of cell growth determined relative to that of untreated control cells (Table 2).

SK-OV-3 = test: NCI in vitro cytotoxicity, SRB assay; conditions: Homo sapiens
KM12 = test: NCI in vitro cytotoxicity, SRB assay; conditions: Homo sapiens
CNS cancer cell lines = test: NCI in vitro cytotoxicity, panel average; conditions: average of the panel's cell lines
M14 = test: NCI in vitro cytotoxicity, SRB assay; conditions: Homo sapiens
SNB-19 = test: NCI in vitro cytotoxicity, SRB assay; conditions: Homo sapiens
Breast cancer cell lines = test: NCI in vitro cytotoxicity, panel average
HL-60(TB) = test: NCI in vitro cytotoxicity, SRB assay; format: cell-based; conditions: Homo sapiens; Leukemia HL-60(TB)
CAKI-1 = test: NCI in vitro cytotoxicity, SRB assay; conditions: Homo sapiens
NCI-H23 = test: NCI in vitro cytotoxicity, SRB assay; conditions: Homo sapiens
Source text: as §1

786-0 = test: NCI in vitro cytotoxicity, SRB assay; conditions: Homo sapiens
OVCAR-3 = test: NCI in vitro cytotoxicity, SRB assay; conditions: Homo sapiens
U251 = test: NCI in vitro cytotoxicity, SRB assay; conditions: Homo sapiens, U-251
A549/ATCC = test: NCI in vitro cytotoxicity, SRB assay; conditions: Homo sapiens
ACHN = test: NCI in vitro cytotoxicity, SRB assay; conditions: Homo sapiens
SNB-75 = test: NCI in vitro cytotoxicity, SRB assay; conditions: Homo sapiens
LOX IMVI = test: NCI in vitro cytotoxicity, SRB assay; conditions: Homo sapiens
CCRF-CEM = test: NCI in vitro cytotoxicity, SRB assay; conditions: Homo sapiens
SF-295 = test: NCI in vitro cytotoxicity, SRB assay; conditions: Homo sapiens
HCC-2998 = test: NCI in vitro cytotoxicity, SRB assay; conditions: Homo sapiens
Source text: as §1

Melanoma cell lines = test: NCI in vitro cytotoxicity, panel average
NCI/ADRRES = test: NCI in vitro cytotoxicity, SRB assay; conditions: Homo sapiens, NCI/ADR-RES
UACC-62 = test: NCI in vitro cytotoxicity, SRB assay; conditions: Homo sapiens
PC-3 = test: NCI in vitro cytotoxicity, SRB assay; conditions: Homo sapiens
EKVX = test: NCI in vitro cytotoxicity, SRB assay; conditions: Homo sapiens
A498 = test: NCI in vitro cytotoxicity, SRB assay; conditions: Homo sapiens
OVCAR-5 = test: NCI in vitro cytotoxicity, SRB assay; conditions: Homo sapiens
MDA-MB-435 = test: NCI in vitro cytotoxicity, SRB assay; conditions: Homo sapiens
HOP-92 = test: NCI in vitro cytotoxicity, SRB assay; conditions: Homo sapiens
Source text: as §1

HS 578T = test: NCI in vitro cytotoxicity, SRB assay; conditions: Homo sapiens
MOLT-4 = test: NCI in vitro cytotoxicity, SRB assay; conditions: Homo sapiens
UACC-257 = test: NCI in vitro cytotoxicity, SRB assay; conditions: Homo sapiens
Colon cancer cell lines = test: NCI in vitro cytotoxicity, panel average
SK-MEL-28 = test: NCI in vitro cytotoxicity, SRB assay; conditions: Homo sapiens
SN12C = test: NCI in vitro cytotoxicity, SRB assay; conditions: Homo sapiens
Leukemia cell lines = test: NCI in vitro cytotoxicity, panel average
SW-620 = test: NCI in vitro cytotoxicity, SRB assay; conditions: Homo sapiens
OVCAR-4 = test: NCI in vitro cytotoxicity, SRB assay; conditions: Homo sapiens
Renal cancer cell lines = test: NCI in vitro cytotoxicity, panel average
T-47D = test: NCI in vitro cytotoxicity, SRB assay; conditions: Homo sapiens, T47D
UO-31 = test: NCI in vitro cytotoxicity, SRB assay; conditions: Homo sapiens
IGROV1 = test: NCI in vitro cytotoxicity, SRB assay; conditions: Homo sapiens, IGROV-1
[3] = test system: Non-small-cell lung cancer cell lines; test: NCI in vitro cytotoxicity, panel average
RPMI-8226 = test: NCI in vitro cytotoxicity, SRB assay; conditions: Homo sapiens
[4] = test system: Ovarian cancer cell lines; test: NCI in vitro cytotoxicity, panel average
K-562 = test: NCI in vitro cytotoxicity, SRB assay; conditions: Homo sapiens, K562
HCT-15 = test: NCI in vitro cytotoxicity, SRB assay; conditions: Homo sapiens
NCI-H460 = test: NCI in vitro cytotoxicity, SRB assay; conditions: Homo sapiens
Source text: as §1

HCT-116 = test: NCI in vitro cytotoxicity, SRB assay; conditions: Homo sapiens
OVCAR-8 = test: NCI in vitro cytotoxicity, SRB assay; conditions: Homo sapiens
DU-145 = test: NCI in vitro cytotoxicity, SRB assay; conditions: Homo sapiens
MDA-MB-468 = test: NCI in vitro cytotoxicity, SRB assay; conditions: Homo sapiens
MCF7 = test: NCI in vitro cytotoxicity, SRB assay; conditions: Homo sapiens
SK-MEL-5 = test: NCI in vitro cytotoxicity, SRB assay; conditions: Homo sapiens
[5] = Homo sapiens, read-out: Log10 LC50 (converted)

COc1cc(C2NC(=O)c3ccccc3N2)ccc1OCCCCCOc1c(OC)cc(C2=NOC(c3cc(OC)c(OC)c(OC)c3)C2)cc1OC (centres unmarked) [Compound 7d, 2-[4-(5-{2,6-Dimethoxy-4-[5-(3,4,5-trimethoxy-phenyl)-4,5-dihydro-isoxazol-3-yl]-phenoxy}-pentyloxy)-3-methoxy-phenyl]-2,3-dihydro-1H-quinazolin-4-one]
GI50 (SF-268): 20.2 µM
GI50 (MDA-MB-231/ATCC): 14.7 µM
GI50 (SF-539): 21.2 µM
CC50 [1, 5]: ≥ 100 µM
Log10 GI50 ([1]; Prostate, average of the panel's cell lines): −5.39 mol/L
GI50 ([2]; Homo sapiens, read-out: GI50 value): < 40 µM
GI50 ([2]; Homo sapiens, read-out: Log10 GI50 mean graph midpoint (MG_MID) (converted)): 5.25 µM
CC50 ([2]; Homo sapiens, read-out: Log10 LC50 mean graph midpoint (MG_MID) (converted)): 95.5 µM
in vitro cytotoxicity (in words) ([2]; cancer cell lines): significant cytotoxicity
Log10 TGI mean graph midpoint (MG_MID) ([2]; human tumour cell lines): −4.18
GI50 (NCI-H522): 27.4 µM
GI50 (SK-OV-3): 38.5 µM
GI50 (KM12): 10.4 µM
Log10 GI50 (CNS cancer cell lines): −4.66 mol/L
GI50 (M14): 19.8 µM
GI50 (SNB-19): 16.6 µM
Log10 GI50 (Breast cancer cell lines; Breast, average of the panel's cell lines): −5.82 mol/L
CC50 (Breast cancer cell lines; [5]): ≥ 100 µM
GI50 (HL-60(TB)): 12.2 µM
GI50 (CAKI-1): 18 µM
GI50 (NCI-H23): 0.38 µM
GI50 (786-0): 31.8 µM
GI50 (OVCAR-3): 12.4 µM
GI50 (U251): 25.2 µM
GI50 (A549/ATCC): 15.7 µM
GI50 (ACHN): 0.95 µM
GI50 (SNB-75): 34.2 µM
GI50 (LOX IMVI): 19.5 µM
GI50 (CCRF-CEM): 0.62 µM
GI50 (SF-295): 16.4 µM
GI50 (HCC-2998): 0.06 µM
CC50 (Melanoma cell lines; [5]): ≥ 100 µM
Log10 GI50 (Melanoma cell lines; Melanoma, average of the panel's cell lines): −5.69 mol/L
GI50 (NCI/ADRRES): 10.6 µM
GI50 (UACC-62): 0.99 µM
GI50 (PC-3): 0.74 µM
GI50 (EKVX): 0.36 µM
GI50 (A498): 19.3 µM
GI50 (OVCAR-5): 31.7 µM
GI50 (MDA-MB-435): 0.6 µM
GI50 (HOP-92): 15.8 µM
GI50 (HS 578T): 15 µM
GI50 (MOLT-4): 0.68 µM
GI50 (UACC-257): 0.29 µM
Log10 GI50 (Colon cancer cell lines; Colon, average of the panel's cell lines): −5.17 mol/L
CC50 (Colon cancer cell lines; [5]): ≥ 100 µM
GI50 (SK-MEL-28): 3.24 µM
GI50 (SN12C): 39.1 µM
CC50 (Leukemia cell lines; [5]): 70.8 µM
Log10 GI50 (Leukemia cell lines; Leukemia, average of the panel's cell lines): −6.17 mol/L
GI50 (SW-620): 21 µM
GI50 (OVCAR-4): 0.49 µM
CC50 (Renal cancer cell lines; [5]): ≥ 100 µM
Log10 GI50 (Renal cancer cell lines; Renal, average of the panel's cell lines): −4.72 mol/L
GI50 (T-47D): 0.3 µM
GI50 (UO-31): 21.4 µM
GI50 (IGROV1): 0.32 µM
CC50 [3, 5]: ≥ 100 µM
Log10 GI50 ([3]; Non-small-cell lung, average of the panel's cell lines): −4.97 mol/L
GI50 (RPMI-8226): 0.06 µM
CC50 [4, 5]: ≥ 100 µM
Log10 GI50 ([4]; Ovarian, average of the panel's cell lines): −5.20 mol/L
GI50 (K-562): 0.37 µM
GI50 (HCT-15): 15.9 µM
GI50 (NCI-H460): 15.1 µM
GI50 (HCT-116): 0.26 µM
GI50 (OVCAR-8): 25.7 µM
GI50 (DU-145): 22.4 µM
GI50 (MDA-MB-468): 0.08 µM
GI50 (MCF7): 0.45 µM
GI50 (SK-MEL-5): 0.18 µM
